This passage reports Ki results from BindingDB's records for doi:10.1016/j.ejphar.2004.03.050 (Memorial Sloan-Kettering Cancer Center, 2004).

“And” between values parts separate entries of the source, which are not always exact repeats. Equal values may be shown once.

Experiment [1] deals with Opioid receptor delta 1 (Bos taurus, UniProt F1N083).
The target in experiment [2] is Mu-type opioid receptor (Bos taurus, UniProt P79350).

For orientation: Ki means the dissociation constant of the complex between target and ligand, obtained from inhibition or displacement. A lower Ki goes with tighter binding.

Chain of Mu-type opioid receptor (P79350 whole entry): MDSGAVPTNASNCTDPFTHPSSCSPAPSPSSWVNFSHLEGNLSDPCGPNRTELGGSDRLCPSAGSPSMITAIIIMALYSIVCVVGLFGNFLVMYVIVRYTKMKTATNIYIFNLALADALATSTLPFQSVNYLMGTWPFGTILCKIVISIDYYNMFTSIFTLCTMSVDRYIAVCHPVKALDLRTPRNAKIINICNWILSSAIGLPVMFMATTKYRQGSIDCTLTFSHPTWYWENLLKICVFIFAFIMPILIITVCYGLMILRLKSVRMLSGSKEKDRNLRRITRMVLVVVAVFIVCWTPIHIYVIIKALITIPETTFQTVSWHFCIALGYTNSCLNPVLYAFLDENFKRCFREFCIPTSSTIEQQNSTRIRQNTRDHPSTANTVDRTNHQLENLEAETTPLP
Chain of Opioid receptor delta 1 (F1N083 whole entry): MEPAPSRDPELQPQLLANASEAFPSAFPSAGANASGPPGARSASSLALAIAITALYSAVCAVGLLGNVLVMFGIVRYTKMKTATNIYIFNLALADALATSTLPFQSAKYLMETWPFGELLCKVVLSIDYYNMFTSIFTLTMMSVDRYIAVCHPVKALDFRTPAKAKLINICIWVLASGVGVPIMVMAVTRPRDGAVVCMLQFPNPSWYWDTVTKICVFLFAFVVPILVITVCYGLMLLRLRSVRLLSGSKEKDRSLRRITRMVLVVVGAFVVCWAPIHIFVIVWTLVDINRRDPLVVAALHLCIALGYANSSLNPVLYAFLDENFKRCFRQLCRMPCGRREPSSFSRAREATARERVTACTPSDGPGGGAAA

The compound `CN1CCC23c4c5ccc(O)c4OC2C(O)CCC3C1C5` (configuration not stated) [CAS_509-60-4] displayed a Ki in experiment [1] of 1000 nM. Turning to `CC(=O)OC1CCC2C3Cc4ccc(O)c5c4C2(CCN3C)C1O5` (configuration not stated) [6-AcDHM], the Ki in experiment [2] was 1.83 nM and 12.3 nM.
